The results in this text go back to publication PMC6467921, “Biosynthesis of DHGA12 and its roles in Arabidopsis seedling establishment” (Nature Communications, 2019).

The target of one experiment is T1, GAS2 (Arabidopsis thaliana, UniProt F4INZ9).
T1 construct: gene GIM2; recombinant purified GAS2
T1 sequence (F4INZ9 1-366): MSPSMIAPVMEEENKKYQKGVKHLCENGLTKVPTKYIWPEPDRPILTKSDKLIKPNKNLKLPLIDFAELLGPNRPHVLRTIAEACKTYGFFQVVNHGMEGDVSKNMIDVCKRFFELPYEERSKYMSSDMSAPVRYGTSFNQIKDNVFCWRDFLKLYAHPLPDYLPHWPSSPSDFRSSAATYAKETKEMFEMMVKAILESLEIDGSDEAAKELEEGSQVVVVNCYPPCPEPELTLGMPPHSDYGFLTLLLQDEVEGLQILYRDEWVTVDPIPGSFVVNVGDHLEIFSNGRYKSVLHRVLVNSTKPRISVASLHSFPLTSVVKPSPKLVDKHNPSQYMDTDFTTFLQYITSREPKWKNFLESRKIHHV
Briefly: product of in vitro GAS2 reaction identified by LC-MS, compared with synthetic standard. In kind it is biochemical.

A further experiment concerns the target T2, GID1c (Arabidopsis thaliana, UniProt Q940G6).
T2 construct: glutathione S-transferase (GST)-tagged GID1c
T2 sequence (Q940G6 2-344): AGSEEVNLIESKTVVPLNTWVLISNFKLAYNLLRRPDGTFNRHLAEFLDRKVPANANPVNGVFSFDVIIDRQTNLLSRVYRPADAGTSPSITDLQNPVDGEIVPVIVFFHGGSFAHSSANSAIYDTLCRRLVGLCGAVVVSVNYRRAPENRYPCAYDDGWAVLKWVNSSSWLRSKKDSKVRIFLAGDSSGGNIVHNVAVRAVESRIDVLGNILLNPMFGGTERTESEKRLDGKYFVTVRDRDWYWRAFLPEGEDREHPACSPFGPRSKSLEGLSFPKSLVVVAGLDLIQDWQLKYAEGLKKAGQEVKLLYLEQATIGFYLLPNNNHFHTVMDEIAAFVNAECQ
Nature of the experiment: microscale thermophoresis (MST), NT-647-labeled GST-GID1c. In kind it is binding.

Usually Kd stands for the free concentration of one partner at which half of the binding sites on the other are occupied at equilibrium, for simple one-to-one binding.

`C[C@@]12CCC[C@@](C)(C(=O)O)[C@H]1[C@H](C(=O)O)[C@@]13C[C@@H](CC[C@@H]21)[C@](C)(O)C3` [DHGA12]: the “product of in vitro GAS2 reaction identified by LC-MS, compared with synthetic s” value on GAS2 is given as “Our data demonstrate that GAS2 exhibits hydration activity using GA12 as a substrate to produce DHGA12”. In addition, the Kd at GID1c amounted to 1.45 ± 0.25 µM.
Turning to `C=C1C[C@]23C[C@H]1CC[C@H]2[C@@]12CC[C@H](O)[C@@](C)(C(=O)O1)[C@H]2[C@@H]3C(=O)O` [GA4], on GID1c, binding was characterised by a dissociation constant (Kd) of 0.68 ± 0.12 µM.
